Each block holds one compound with its values, some of them ahead of it.
Legend:
[1] = tested on: K562; assay: MTT cytotoxicity, K562 chronic myeloid leukemia cells; format: cell-based; settings: Homo sapiens, K562, suspension culture, 48 h (Table 2)
From the text: (§1) Cell cultures used in the work: adhesive cultures HBL-100 cells (cells of a normal mammary gland epithelium, immortalized by the SV40 virus and acquired tumorigenicity); MCF-7 breast cancer cells; PC-3 prostate adenocarcinoma cells; HCT-116 colorectal cancer cells; non-small cell lung cancer cells A549; human embryonic kidney cells HEK293; suspension cultures (NCI-H929 and RPMI8226 multiple myeloma cells), K562 chronic myeloid leukemia cells; THP-1 acute monocytic leukemia cells; and Jurkat acute T-cell leukemia cells. We also used several primary cultures of soft tissue sarcomas at 3–4passeges, kindly provided by T.I. Fetisov (The Ethics Committee of N.N. Blokhin NMRCO, protocol code 18-28-09095 and date of approval 28 September 2018).
(§2) Modifications of cell lines: K562/i-S9 is a clone obtained after transfection of K562 cells with the ABCB1 (MDR1) gene-encoding P-glycoprotein [36]. Cells HBL-100/Dox and K562/i-S9_Dox are cells obtained by long-term selection with increasing concentrations of doxorubicin (Sigma-Aldrich, St. Louis, MO, USA) from HBL-100 and K562/i-S9 cells, respectively. MCF-7, A594 cells, and primary cultures of soft tissue sarcomas were cultured in DMEM medium (PanEko, Russia), PC-3 and HCT-116 cells and all suspension cultures in RPMI1640 medium (PanEko, Russia) supplemented with 10% fetal bovine serum (GE Healthcare LifeSciences, USA), and gentamicin at a concentration of 40 μg/mL at 37 °C and 5% CO2.
(§3) Cells MCF-7, PC-3, A549, and HCT-116, and primary cultures of STSwere seeded in 96-well plates, 6 × 10^3 cells per well in 90 μL of culture medium. Suspension cultures were seeded at a concentration of 25 × 10^3 cells per well in 135 μL of medium. The test substances were dissolved in DMSO (Applichem, Council Bluffs, IA, USA) until a concentration of 1 × 10^−^2 M was obtained; for the subsequent dilution of the substances, a serum-free culture medium was used. The next day, for adhesive cultures, and on the same day, for suspension cultures, substances were added to the plates in a volume of 10 μL (adhesive cultures) and 15 μL (suspension cultures) per well at various concentrations; each concentration was added in 3–4 repetitions. The cells were cultured in the presence of substances for 48 h. Then, MTT reagent (PanEko, Moscow, Russia) was added to the wells at a concentration of 5 mg/mL in a volume of 20 μL per well. After 1.5–2 h, the medium with the reagent was removed, and the precipitate of the crystals of formazan was dissolved in 60 μL of DMSO. The optical density was determined using a Multiskan FC spectrophotometer (Thermo Scientific, Waltham, MA, USA) at a wavelength of 540 nm.
(§4) Based on the results of the experiments, a schedule was plotted of the dependence of the percentage of surviving cells (from control) on the concentration of the compound, and the sought concentration IC50 was calculated. The experiments were carried out in 3–4 times.

[2] = tested on: K562/i-S9; assay: MTT cytotoxicity, resistant K562/i-S9 cells (ABCB1 transfected); format: cell-based, human; settings: for IC50: Homo sapiens, K562i/S9, resistant version, ABCB1 transfected, MTT, 48 h; for resistance of K562/i-S9 cells relative to K562: ratio of IC50 values, Table 4
From the text: At the next stage, the cytotoxic activity of compounds 1, 2, and 9 (Scheme 2) was investigated on several pairs of cell lines that differ in the expression of P-gp and the method by which they were obtained. K562/i-S9 cells are the result of the ABCB1 transfection into K562 cells, which increases P-gp expression, but should not seriously affect other signaling pathways that could lead to drug resistance. K562/i-S9_Dox cells were obtained from K562/i-S9 by selection with low concentrations of doxorubicin to increase P-gp expression. Subline HBL-100/Dox is a derivative of HBL-100 cells, obtained by long-term selection with increasing concentrations of doxorubicin, which led not only to an increase in P-gp expression, but also to a change in the signaling pathways in this subline. Cells of the K562/i-S9_Dox subline express the highest level of P-gp: 94.7% ± 2.3 (p < 0.0001 relative to K562, and p = 0.04 relative to K562/i-S9). In cells of the K562/i-S9 line, the expression of P-gp is 80% ± 8.2 (p < 0.0001 relative to K562). At 0.7% ± 0.5, P-gp is practically not expressed in K562 cells (Figure 1).
as §2, §3, §4

[3] = tested on: ERK 1/2 (pThr185/pTyr187); assay: MILLIPLEX MAP 9-Plex, ERK 1/2 active form in A431 lysates; format: cell-based, human; settings: 10 μM; for ERK ½ (pThr185/pTyr187) fluorescence intensity: A431 cell lysates, 1 h, M ± mx, control 839.7 ± 248.9; for activation of signaling pathway ERK/MAP kinase 1/2 (pThr185/pTyr187), in words: A431 cells
From the text: We used the MILLIPLEX MAP Multi-Pathway Magnetic Bead 9-Plex-Cell Signaling Multiplex Assay, which allows the simultaneous detection of nine phosphorylated proteins that are markers of the main intracellular signaling pathways (phosphorylation site is indicated in parentheses), a universal transcription factor that controls the expression of immune response genes; apoptosis and cell cycle NFκB (pS536); cAMP-dependent transcription factor (CREB (pS133); mitogen-activated kinase p38 (pT180/pY182); stress-activated protein kinase JNK (pT183/pY185); ribosomal […]; transcription factors STAT3 (pS727) and STAT5A/B (pY694/699); protein kinase B (Akt) (pS473); and kinase regulated by extracellular signals ERK1/2 (pT185/pY187).
The effect of various concentrations of PPA derivatives on the cell culture was studied using xCelligence RTCA equipment (AceaBioscience, San Diego, CA, USA). The concentration closest to the IC50 (10 μM) was chosen as the experimental concentration. The selected concentration of phaeosphaeride A derivatives allows for the assessment of the early effect of compounds on cells and compares their effectiveness. In this experiment, the signaling pathways Akt (pSer473), p70S6K (pThr412), NFkB (p65-pSer536), and CREB (pSer133) were not activated (Table 8). The stress-activated signaling pathways ERK/MAP kinase 1/2 (pThr185/pTyr187), JNK (pThr183/pTyr185), and p38 (pThr180/pTyr182) were activated for these compounds.
We used a MILLIPLEX MAP Multi-Pathway Magnetic Bead 9-Plex-Cell Signaling Multiplex Assay kit (Merck/Millipore), according to the manufacturer’s protocol. A431 cells were cultured in DMEM with 10% FBS in 24-well plates. Compounds were added to the subconfluent cells at a concentration of 10 μM in DMEM medium for 1 h. Each compound was added in 5 experimental repeats. Cell lysates were prepared with lysis buffer (Millipore) with protease inhibitors (Complete, Roche); the protein concentration in the lysates was determined by the Lowry method. In samples equalized in protein concentration, the active forms of kinase cascades were determined using a Bio-Plex 200 fluorescent analyzer (Bio-Rad).

[4] = tested on: NCI-H929; assay: MTT cytotoxicity, NCI-H929 multiple myeloma cells; format: cell-based; settings: Homo sapiens, suspension culture, 48 h
From the text: as §1, §2, §3, §4

[5] = tested on: Jurkat; assay: MTT cytotoxicity, Jurkat acute T-cell leukemia cells; format: cell-based; settings: Homo sapiens, suspension culture, 48 h
From the text: as §1, §2, §3, §4

SMILES: C=C1C2=C(C(=O)N1OC)[C@@H](N1CCCC1)[C@@](C)(O)[C@H](CCCCC)O2 [Compound 1]
IC50 [1]: 3.8 ± 0.6 µM
IC50 [2]: 2.4 ± 0.6 µM
resistance of K562/i-S9 cells relative to K562 [2]: slightly greater sensitivity
ERK ½ (pThr185/pTyr187) fluorescence intensity [3]: 4650.1 ± 509.0 *↑ rel. units
IC50 [4]: 0.7 ± 0.2 µM
IC50 [5]: 1.5 ± 0.4 µM

SMILES: C=C1C2=C(C(=O)N1OC)[C@@H](N(CC)CCO)[C@@](C)(O)[C@H](CCCCC)O2 [Compound 9, (2S,3R,4R)-4-[ethyl(2-hydroxyethyl)amino]-3-hydroxy-6-methoxy-3-methyl-7-methylene-2-pentyl-3,4,6,7-tetrahydropyrano[2,3-c]pyrrol-5(2H)-one]
IC50 [1]: 3.7 ± 0.5 µM
IC50 [2]: 2.8 ± 0.6 µM
resistance of K562/i-S9 cells relative to K562 [2]: tendency towards increased sensitivity
ERK ½ (pThr185/pTyr187) fluorescence intensity [3]: 3276.9 ± 700.0 *↑ rel. units
IC50 [4]: 0.6 ± 0.2 µM
IC50 [5]: 1.3 ± 0.4 µM

Second part, led by results:

activation of signaling pathway ERK/MAP kinase 1/2 (pThr185/pTyr187), in words [3]: maximum degree of activation
SMILES: C=C1C2=C(C(=O)N1OC)[C@@H](N(C)C)[C@@](C)(O)[C@H](CCCCC)O2 [Compound 2, (2S,3R,4R)-4-(dimethylamino)-3-hydroxy-6-methoxy-3-methyl-7-methylene-2-pentyl-3,4,6,7-tetrahydropyrano[2,3-c]pyrrol-5(2H)-one]
IC50 [1]: 2.4 ± 0.7 µM
IC50 [2]: 1.6 ± 0.5 µM
ERK ½ (pThr185/pTyr187) fluorescence intensity [3]: 5074.6 ± 770.1 *↑ rel. units
IC50 [4]: 0.5 ± 0.1 µM
IC50 [5]: 1.1 ± 0.1 µM

activation of signaling pathway ERK/MAP kinase 1/2 (pThr185/pTyr187), in words [3]: only slightly activated
SMILES: C=C1C2=C(C(=O)N1OC)[C@@H](N(CCCC)CCCC)[C@@](C)(O)[C@H](CCCCC)O2 [Compound 5, (2S,3R,4R)-4-(dibutylamino)-3-hydroxy-6-methoxy-3-methyl-7-methylene-2-pentyl-3,4,6,7-tetrahydropyrano[2,3-c]pyrrol-5(2H)-one]
IC50 [1]: 6.5 ± 0.5 µM
ERK ½ (pThr185/pTyr187) fluorescence intensity [3]: 1880.4 ± 81.7 *↑ rel. units
IC50 [4]: 2.9 ± 0.3 µM
IC50 [5]: 3.7 ± 0.2 µM

activation of signaling pathway ERK/MAP kinase 1/2 (pThr185/pTyr187), in words [3]: only slightly activated
SMILES: CCCCC[C@@H]1OC2=C(C(=O)N(OC)/C2=C\n2cnnc2)C(n2cnnc2)[C@@]1(C)O (stereo partly shown) [Compound 10]
IC50 [1]: 45 ± 5.4 µM
ERK ½ (pThr185/pTyr187) fluorescence intensity [3]: 1864.9 ± 149.5 *↑ rel. units
IC50 [4]: 5.6 ± 0.7 µM
IC50 [5]: 94 ± 22.6 µM
